Patent US20050014765A1, “Aryl-heteroaromatic products, compositions comprising them and use” (Aventis Pharma S.A., priority 2003, published 2005)
Where a name gives a salt, the structure may show the parent alone.

What was measured:
[1] = tested on: HCT116 cells; assay: Inhibition of proliferation of the HCT116 human colon tumor line ([14C]-thymidine incorporation); format: cell-based; conditions: HCT-116, 48 hours incubation at 37° C., read-out: Inhibition of HCT116 proliferation IC 50
Description: Test for Determining the Inhibition of Proliferation of the HCT116 Human Colon Tumor Line
The proliferation of HCT116 cells is evaluated by mesuring the incorporation of [^14C]-thymidine in the following way. The HCT166 cells (from the ATCC) are cultured in a DMEM medium (Gibco) which contains 10% of fetal calf serum and antibiotics (1% penicillin, 1% streptomycin). To perform the proliferation test, the cells are seeded into 96-well cytostar microplates (Amersham) at the rate of 5000 cells per well. The [^14C]-thymidine (0.1 μCi/well) and the products to be evaluated are subsequently added. Variable concentrations of products up to 10 μM are used; the DMSO (solvent used to dissolve the products) should not exceed 0.5% in the medium. 48 hours after incubation at 37° C., the radioactivity incorporated into the cells is measured by counting the plate in a Tri-Lux counter (Wallac). The IC50 is defined as the concentration of product which reduces the radioactivity by 50% compared with an untreated control. A product with an IC50 of less than 10 μm is regarded as cytotoxic.

[2] = target: T1, Tubulin purified from pig brains (Sus scrofa, UniProt P02550+P02554); assay: Assessment of the inhibition of tubulin polymerization (turbidimetry at 350 nm); format: biochemical; conditions: concentration which inhibits the rate of polymerization by 50%; tubulin 1 mg/ml, 37° C.; read-out: Inhibition of tubulin polymerization IC 50
T1 construct: Tubulin is purified from pig brains according to published methods; from tissue; host or cells: pig brain
T1 sequence (P02550 whole entry): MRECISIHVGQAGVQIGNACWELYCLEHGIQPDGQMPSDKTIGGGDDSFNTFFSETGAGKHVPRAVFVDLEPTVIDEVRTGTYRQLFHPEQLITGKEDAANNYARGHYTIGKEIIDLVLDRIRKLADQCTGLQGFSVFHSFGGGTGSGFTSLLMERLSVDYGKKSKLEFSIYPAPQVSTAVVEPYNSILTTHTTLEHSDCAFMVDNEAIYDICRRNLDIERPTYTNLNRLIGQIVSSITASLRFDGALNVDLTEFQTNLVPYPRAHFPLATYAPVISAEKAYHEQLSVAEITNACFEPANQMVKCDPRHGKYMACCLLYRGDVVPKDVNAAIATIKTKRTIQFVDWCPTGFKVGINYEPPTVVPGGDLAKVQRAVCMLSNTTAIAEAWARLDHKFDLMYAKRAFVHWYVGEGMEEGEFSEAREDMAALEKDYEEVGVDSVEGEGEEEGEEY
T1 sequence (P02554 whole entry): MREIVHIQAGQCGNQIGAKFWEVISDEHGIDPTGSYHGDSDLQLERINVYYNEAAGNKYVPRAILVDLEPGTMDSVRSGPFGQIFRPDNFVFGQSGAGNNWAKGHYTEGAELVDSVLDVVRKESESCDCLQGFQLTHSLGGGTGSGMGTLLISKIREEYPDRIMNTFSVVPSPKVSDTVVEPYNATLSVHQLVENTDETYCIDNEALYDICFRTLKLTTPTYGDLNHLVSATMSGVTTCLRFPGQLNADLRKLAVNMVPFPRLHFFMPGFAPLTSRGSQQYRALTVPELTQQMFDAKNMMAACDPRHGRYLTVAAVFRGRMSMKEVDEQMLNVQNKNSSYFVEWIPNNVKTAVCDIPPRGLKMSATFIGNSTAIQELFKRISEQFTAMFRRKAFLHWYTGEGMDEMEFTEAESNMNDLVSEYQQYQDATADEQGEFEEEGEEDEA
Description: Assessment of the Inhibition of Tubulin Polymerization
Tubulin is purified from pig brains according to published methods (Shelanski et al., 1973, Proc. Natl. Acad. Sci. USA, 70, 765-768. Weingarten et al., 1975, Proc. Natl. Acad. Sci. USA, 72, 1858-1862). Briefly, the brains are ground and centrifuged in an extraction buffer. The tubulin, present in the extract supernatant is subjected to two successive cycles of polymerization at 37° C. and depolymerization at 4° C., before being separated from the MAPs (Microtubule Associated Proteins) by chromatography on a phosphocellulose P11 column (Whatman). The tubulin thus isolated is more than 95% pure. It is stored in a buffer known as RB/2 30% glycerol, the composition of which is 50 mM MES-NaOH [2-(N-morpholino)ethanesulfonic acid], pH 6.8; 0.25 mM MgCl2; 0.5 mM EGTA; 30% (v/v) glycerol, 0.2 mM GTP (guanosine 5′-triphosphate).
The polymerization of the tubulin into microtubules is monitored by turbidimetry as follows: the tubulin is adjusted to a concentration of 10 μm (1 mg/ml) in the RB/2 30% glycerol buffer, to which are added 1 mM GTP and 6 mM MgCl2. The polymerization is initiated by increasing the temperature from 6° C. to 37° C. in a cuvette with a 1 cm optical pathlength, placed in a UVIKON 931 spectrophotometer (Kontron) equipped with a thermostatically-regulated cuvette holder. The increase in turbidity of the solution is monitored at 350 nm.
The products are dissolved at 10 mM in DMSO and added at variable concentrations (0.5 to 10 μm) to the tubulin solution before polymerization. The IC50 is defined as the concentration of the product which inhibits the rate of polymerization by 50%.

IC50 [1] [µM] | IC50 [2] [µM] | Structure (SMILES)
0.0295 | 0.58 | N#Cc1cccc(N2CCN(C(=O)c3cn(CO)cc3-c3ccccc3)CC2)c1 [Example 72, 3-[4-(1-Hydroxymethyl-4-phenyl-1H-pyrrol-3-ylcarbonyl)piperazin-1-yl]benzonitrile]
0.536 | 5.5 | NC(=O)c1cccc(N2CCN(C(=O)c3cncn3-c3ccccc3)CC2)c1 [Example 17, [4-(3-Carboxamidophenyl)piperazin-1-yl](1-phenyl-1H-imidazol-5-yl)methanone]
0.275 | 11.2 | COc1cc(OC)cc(N2CCN(C(=O)c3c(-c4ccccc4)ccn3C)CC2)c1 [Example 40, [4-(3,5-Dimethoxyphenyl)piperazin-1-yl](1-methyl-3-phenyl-1H-pyrrol-2-yl)-methanone hydrochloride]
2.03 | 2.43 | NC(=O)c1cccc(N2CCN(C(=O)c3cn(CCO)cc3-c3ccccc3)CC2)c1 [Example 66, 3-[4-(1-Hydroxyethyl-4-phenyl-1H-pyrrol-3-ylcarbonyl)piperazin-1-yl]benzamide]
0.749 | 2.16 | COC(=O)CCn1cc(C(=O)N2CCN(c3cccc(Cl)c3)CC2)c(-c2ccccc2)c1 [Example 34, Methyl 3-{3-[4-(3-chlorophenyl)piperazin-1-ylcarbonyl]-4-phenylpyrrol-1-yl}-propionate]
0.008 | 0.57 | COc1cc(OC)cc(N2CCN(C(=O)c3[nH]c(C(F)(F)F)nc3-c3ccccc3)CC2)c1 [Example 62, [4-(3,5-Dimethoxyphenyl)piperazin-1-yl](2-trifluoromethyl-4-phenyl-1H-imidazol-5-yl)methanone]
0.011 | 0.99 | Cc1nc(-c2ccccc2)c(C(=O)N2CCN(c3cccc(C#N)c3)CC2)[nH]1 [Example 60, 3-[4-(2-Methyl-5-phenyl-1H-imidazol-4-ylcarbonyl)piperazin-1-yl]benzonitrile]
0.0071 | 0.6 | COc1cc(OC)cc(N2CCN(C(=O)c3[nH]c(C)nc3-c3ccccc3)CC2)c1 [Example 43, [4-(3,5-Dimethoxyphenyl)piperazin-1-yl](2-methyl-5-phenyl-3H-imidazol-4-yl)methanone]
1.19 | 3.5 | CC(=O)Nc1cccc(N2CCN(C(=O)c3[nH]cnc3-c3ccccc3)CC2)c1 [Example 12, [4-(3-Acetylaminophenyl)piperazin-1-yl](4-phenyl-1H-imidazol-5-yl)methanone]
0.0885 | 3.1 | O=C(c1[nH]cnc1-c1ccccc1)N1CCN(c2cccnc2)CC1 [Example 10, [4-(Pyridin-3-yl)piperazin-1-yl](4-phenyl-1H-imidazol-5-yl)methanone]
0.0525 | 2 | O=C(c1sccc1-c1ccccc1)N1CCN(c2cccc(Cl)c2)CC1 [Example 4, [4-(3-Chlorophenyl)piperazin-1-yl](3-phenylthiophen-2-yl)methanone]
0.0117 | 0.493 | CSc1nc(-c2ccccc2)c(C(=O)N2CCN(c3cccc(CO)c3)CC2)[nH]1 [Example 79, [4-(3-Hydroxymethylphenyl)piperazin-1-yl](2-methylsulfanyl-4-phenyl-1H-imidazol-5-yl)methanone]
0.0511 | 0.75 | COc1cc(OC)cc(N2CCN(C(=O)c3cn(Cc4cccnc4)cc3-c3ccccc3)CC2)c1 [Example 48, [4-(3,5-Dimethoxyphenyl)piperazin-1-yl][1-(pyridin-3-yl)methyl-4-phenyl-1H-pyrrol-3-yl]methanone]
0.0016 | 1.29 | COc1cc(OC)cc(N2CCN(C(=O)c3sc(N)nc3-c3ccccc3)CC2)c1 [Example 42, (2-Amino-4-phenylthiazol-5-yl)[4-(3,5-dimethoxyphenyl)piperazin-1-yl]-methanone]
0.0752 | 3.2 | O=C(c1cc[nH]c1-c1ccccc1)N1CCN(c2cccc(Cl)c2)CC1 [Example 26, [4-(3-Chlorophenyl)piperazin-1-yl](2-phenyl-1H-pyrrol-3-yl)methanone]
0.0074 | 1.2 | N#Cc1cccc(N2CCN(C(=O)c3[nH]cnc3-c3ccccc3)CC2)c1 [Example 14, [4-(3-Cyanophenyl)piperazin-1-yl](4-phenyl-1H-imidazol-5-yl)methanone]
0.18 | 1.95 | COc1cc(OC)cc(N2CCN(C(=O)c3[nH]c([S+](C)[O-])nc3-c3ccccc3)CC2)c1 (stereo not shown) [Example 33, [4-(3,5-Dimethoxyphenyl)piperazin-1-yl](2-methanesulfinyl-5-phenyl-1H-imidazol-4-yl)methanone]
0.003 | 0.4 | COc1cccc(N2CCN(C(=O)c3[nH]cnc3-c3ccccc3)CC2)c1 [Example 29, [4-(3-Methoxyphenyl)piperazin-1-yl](4-phenyl-1H-imidazol-5-yl)methanone]
0.0017 | 0.415 | CSc1nc(-c2ccccc2)c(C(=O)N2CCN(c3cccc(C#N)c3)CC2)[nH]1 [Example 56, 3-[4-(2-Methylsulfanyl-4-phenyl-1H-imidazol-5-ylcarbonyl)piperazin-1-yl]-benzonitrile]
0.101 | 0.97 | Cc1nc(-c2ccccc2)c(C(=O)N2CCN(c3cccc(CO)c3)CC2)[nH]1 [Example 76, [4-(3-Hydroxymethylphenyl)piperazin-1-yl](2-methyl-4-phenyl-1H-imidazol-5-yl)methanone]
0.364 | 4.66 | Cc1nc(-c2ccccc2)c(C(=O)N2CCN(c3cccc(C(N)=O)c3)CC2)[nH]1 [Example 59, 3-[4-(2-Methyl-5-phenyl-1H-imidazol-4-ylcarbonyl)piperazin-1-yl]benzamide]
0.0017 | 0.6 | COc1cc(OC)cc(N2CCN(C(=O)c3nc(SC)[nH]c3-c3ccccc3)CC2)c1 [Example 23, [4-(3,5-Dimethoxyphenyl)piperazin-1-yl](2-methylsulfanyl-5-phenyl-1H-imidazol-4-yl)methanone]
0.536 | 3.41 | Cn1ccc(C(=O)N2CCN(c3cccc(C(N)=O)c3)CC2)c1-c1ccccc1 [Example 50, 3-[4-(1-Methyl-2-phenyl-1H-pyrrol-3-ylcarbonyl)piperazin-1-yl]benzamide]
0.0909 | 2.9 | N#Cc1cccc(N2CCN(C(=O)c3cncn3-c3ccccc3)CC2)c1 [Example 13, [4-(3-Cyanophenyl)piperazin-1-yl](1-phenyl-1H-imidazol-5-yl)methanone]
0.0117 | 0.7 | COc1cc(OC)cc(N2CCN(C(=O)c3nc(S)[nH]c3-c3ccccc3)CC2)c1 [Example 20, [4-(3,5-Dimethoxyphenyl)piperazin-1-yl](2-mercapto-5-phenyl-1H-imidazol-4-yl)methanone]
0.2 | 12.4 | NC(=O)c1cccc(N2CCN(C(=O)c3[nH]ccc3-c3ccccc3)CC2)c1 [Example 39, 3-[4-(3-Phenyl-1H-pyrrol-2-ylcarbonyl)piperazin-1-yl]benzamide]
0.0064 | 0.8 | O=C(c1[nH]cnc1-c1ccccc1)N1CCN(c2cccc(OC(F)F)c2)CC1 [Example 30, [4-(3-Difluoromethoxyphenyl)piperazin-1-yl](5-phenyl-1H-imidazol-4-yl)methanone]
0.064 | 1.38 | CSc1nc(-c2ccccc2)c(C(=O)N2CCN(c3cccc(C(N)=O)c3)CC2)[nH]1 [Example 55, 3-[4-(2-Methylsulfanyl-4-phenyl-1H-imidazol-5-ylcarbonyl)piperazin-1-yl]-benzamide]
0.297 | 9.6 | NC(=O)c1cccc(N2CCN(C(=O)c3cc[nH]c3-c3ccccc3)CC2)c1 [Example 25, [4-(3-Carboxamidophenyl)piperazin-1-yl](2-phenyl-1-H-pyrrol-3-yl)methanone]
